According to patent US20220162191A1, “SMALL MOLECULE MODULATORS OF IL-17” (LEO PHARMA A/S, priority 2019, published 2022):

What follows are compounds tested against T1, human IL-17AA (Homo sapiens, UniProt Q16552) (assay: IL-8 release assay in human epithelial keratinocytes adult (HEKa)). Conditions: 3 ng/ml human IL-17AA + 10 ng/ml human TNFalpha, 68-72 h, IL-8 by HTRF, read-out: Rel EC50 L-8 release assay.
T1 construct: host or cells: HEK (human embryonic kidney) cells
T1 sequence (Q16552 24-155) 1: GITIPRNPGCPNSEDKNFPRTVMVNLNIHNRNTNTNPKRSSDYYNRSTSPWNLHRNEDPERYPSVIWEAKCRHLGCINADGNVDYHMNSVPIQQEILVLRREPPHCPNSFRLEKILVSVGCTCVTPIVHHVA
T1 sequence (Q16552 24-155) 2: T1 sequence (Q16552 24-155) 1
Format: cell-based
How it was run: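 IL-8 secretion, quantified by HTRF (665/620 nm) as percent of controls, served as the readout after 68–72 h culture of HEKa cells with compound plus IL-17AA (3 ng/ml final) and TNF-alpha (10 ng/ml final). Four-parameter logistic curves gave relative IC50 and Emax.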

`COc1cc(NC(=O)[C@H](Cc2cc(-c3ccc(=O)n(C(C)C)c3)ccc2Cl)NC(=O)c2conc2C)ccc1-c1ccnn1C` [Example 70, N-[(1S)-1-[[2-chloro-5-(1-isopropyl-6-oxo-3-pyridyl)phenyl]methyl]-2-[3-methoxy-4-(2-methylpyrazol-3-yl)anilino]-2-oxo-ethyl]-3-methyl-isoxazole-4-carboxamide] was tested. Which EC50 did it give?
Its EC50 is over 1 µM.

`Cc1nocc1C(=O)N[C@@H](Cc1cc(-c2ccc(=O)n(C(C)C)c2)ccc1Cl)C(=O)Nc1ccc(-c2ccnn2C)c(O)c1` [Example 71, N-[(1S)-1-[[2-chloro-5-(1-isopropyl-6-oxo-3-pyridyl)phenyl]methyl]-2-[3-hydroxy-4-(2-methylpyrazol-3-yl)anilino]-2-oxo-ethyl]-3-methyl-isoxazole-4-carboxamide] was tested. Which EC50 did it give?
The EC50 was under 0.1 µM.

For `CC(C)n1cc(-c2ccc(Cl)c(CC(NC(=O)c3ccnn3C)C(=O)Nc3ccc(-c4nncn4C4CC4)cc3)c2)ccc1=O` (stereo not shown) [Example 72, N-[1-[[2-chloro-5-(1-isopropyl-6-oxo-3-pyridyl)phenyl]methyl]-2-[4-(4-cyclopropyl-1,2,4-triazol-3-yl)anilino]-2-oxo-ethyl]-2-methyl-pyrazole-3-carboxamide], which EC50 is on record?
Its EC50 is over 1 µM.

For `Cc1cc(-c2ccc(Cl)c(CC(NC(=O)c3ccnn3C)C(=O)Nc3ccc(-c4nncn4C4CC4)cc3)c2)ccn1` (stereo not shown) [Example 73, N-[1-[[2-chloro-5-(2-methyl-4-pyridyl)phenyl]methyl]-2-[4-(4-cyclopropyl-1,2,4-triazol-3-yl)anilino]-2-oxo-ethyl]-2-methyl-pyrazole-3-carboxamide], which EC50 is on record?
The EC50 was over 1 µM.

Which EC50 does the source give for `CC(C)c1cc(-c2ccc(Cl)c(CC(NC(=O)c3ccnn3C)C(=O)Nc3ccc(-c4nncn4C4CC4)cc3)c2)ccn1` (stereo not shown) [Example 74, N-[1-[[2-chloro-5-(2-isopropyl-4-pyridyl)phenyl]methyl]-2-[4-(4-cyclopropyl-1,2,4-triazol-3-yl)anilino]-2-oxo-ethyl]-2-methyl-pyrazole-3-carboxamide] here?
Its EC50 is 0.1 to 1 µM.

How did the EC50 turn out when `CC(C)c1cc(-c2ccc(Cl)c(CC(NC(=O)c3ccnn3C)C(=O)Nc3ccc(-c4nncn4C)cc3)c2)ccn1` (stereo not shown) [Example 75, N-[1-[[2-chloro-5-(2-isopropyl-4-pyridyl)phenyl]methyl]-2-[4-(4-methyl-1,2,4-triazol-3-yl)anilino]-2-oxo-ethyl]-2-methyl-pyrazole-3-carboxamide] was run?
Its EC50 is over 1 µM.

With `CC(C)n1cc(-c2ccc(Cl)c(CC(NC(=O)OC(C)(C)C)C(=O)Nc3ccc(-c4cnn[nH]4)cc3)c2)ccc1=O` (stereo not shown) [Example 76, tert-butyl N-[1-[[2-chloro-5-(1-isopropyl-6-oxo-3-pyridyl)phenyl]methyl]-2-oxo-2-[4-(1H-triazol-5-yl)anilino]ethyl]carbamate] as the compound, how does the EC50 read?
The EC50 was over 1 µM.

With `Cc1nncn1-c1ccc(NC(=O)C(Cc2cc(-c3ccc(=O)n(C(C)C)c3)ccc2Cl)NC(=O)c2ccnn2C)cc1` (stereo not shown) [Example 77, N-[1-[[2-chloro-5-(1-isopropyl-6-oxo-3-pyridyl)phenyl]methyl]-2-[4-(3-methyl-1,2,4-triazol-4-yl)anilino]-2-oxo-ethyl]-2-methyl-pyrazole-3-carboxamide] as the compound, how does the EC50 read?
The EC50 was over 1 µM.

For `Cc1nocc1-c1ccc(NC(=O)C(Cc2cc(-c3ccc(=O)n(C(C)C)c3)ccc2Cl)NC(=O)c2ccnn2C)cc1` (stereo not shown) [Example 78, N-[1-[[2-chloro-5-(1-isopropyl-6-oxo-3-pyridyl)phenyl]methyl]-2-[4-(3-methylisoxazol-4-yl)anilino]-2-oxo-ethyl]-2-methyl-pyrazole-3-carboxamide], which EC50 is on record?
The EC50 was 0.1 to 1 µM.

For `CC(C)n1cc(-c2ccc(Cl)c(CC(NC(=O)c3ccnn3C)C(=O)Nc3ccc(-c4cncn4C)cc3)c2)ccc1=O` (stereo not shown) [Example 79, N-[1-[[2-chloro-5-(1-isopropyl-6-oxo-3-pyridyl)phenyl]methyl]-2-[4-(3-methylimidazol-4-yl)anilino]-2-oxo-ethyl]-2-methyl-pyrazole-3-carboxamide], which EC50 is on record?
Its EC50 is 0.1 to 1 µM.

For `Cc1nocc1C(=O)NC(Cc1cc(-c2ccc(=O)n(C(C)C)c2)ccc1Cl)C(=O)Nc1ccc(-c2cn[nH]c2)cc1` (stereo not shown) [Example 80, N-[1-[[2-chloro-5-(1-isopropyl-6-oxo-3-pyridyl)phenyl]methyl]-2-oxo-2-[4-(1H-pyrazol-4-yl)anilino]ethyl]-3-methyl-isoxazole-4-carboxamide], which EC50 is on record?
Its EC50 is 0.1 to 1 µM.

For `Cc1nocc1C(=O)N[C@@H](Cc1cc(-c2ccnc(C(O)C(C)(C)C)c2)ccc1Cl)C(=O)Nc1ccc(-c2nncn2C)cc1` (stereo partly drawn) [Example 81, N-[(1S)-1-[[2-chloro-5-[2-(1-hydroxy-2,2-dimethyl-propyl)-4-pyridyl]phenyl]methyl]-2-[4-(4-methyl-1,2,4-triazol-3-yl)anilino]-2-oxo-ethyl]-3-methyl-isoxazole-4-carboxamide], which EC50 is on record?
Its EC50 is 0.1 to 1 µM.

Which EC50 does the source give for `Cc1nocc1C(=O)N[C@@H](Cc1cc(-c2ccnc(C(O)C(C)C)c2)ccc1Cl)C(=O)Nc1ccc(-c2nncn2C)cc1` (stereo partly drawn) [Example 82, N-[(1S)-1-[[2-chloro-5-[2-(1-hydroxy-2-methyl-propyl)-4-pyridyl]phenyl]methyl]-2-[4-(4-methyl-1,2,4-triazol-3-yl)anilino]-2-oxo-ethyl]-3-methyl-isoxazole-4-carboxamide] here?
The EC50 was 0.1 to 1 µM.

For `CC(C)n1cc(-c2ccc(Cl)c(CC(NC(=O)c3ccnn3C)C(=O)Nc3ccc(-c4cnn[nH]4)cc3)c2)ccc1=O` (stereo not shown) [Example 83, N-[1-[[2-chloro-5-(1-isopropyl-6-oxo-3-pyridyl)phenyl]methyl]-2-oxo-2-[4-(1H-triazol-5-yl)anilino]ethyl]-2-methyl-pyrazole-3-carboxamide], which EC50 is on record?
Its EC50 is 0.1 to 1 µM.

How did the EC50 turn out when `Cc1nocc1C(=O)N[C@@H](Cc1cc(-c2ccnc(C(=O)C(C)(C)C)c2)ccc1Cl)C(=O)Nc1ccc(-c2nncn2C)cc1` [Example 84, N-[(1S)-1-[[2-chloro-5-[2-(2,2-dimethylpropanoyl)-4-pyridyl]phenyl]methyl]-2-[4-(4-methyl-1,2,4-triazol-3-yl)anilino]-2-oxo-ethyl]-3-methyl-isoxazole-4-carboxamide] was run?
Its EC50 is 0.1 to 1 µM.

`Cc1nocc1C(=O)N[C@@H](Cc1cc(-c2ccnc(C(=O)C3CC3)c2)ccc1Cl)C(=O)Nc1ccc(-c2nncn2C)cc1` [Example 85, N-[(1S)-1-[[2-chloro-5-[2-(cyclopropanecarbonyl)-4-pyridyl]phenyl]methyl]-2-[4-(4-methyl-1,2,4-triazol-3-yl)anilino]-2-oxo-ethyl]-3-methyl-isoxazole-4-carboxamide] was tested. Which EC50 did it give?
Its EC50 is over 1 µM.

`CC(C)n1cc(-c2ccc(Cl)c(C[C@H](NC(=O)OC(C)(C)C)C(=O)Nc3ccc(-c4nncn4C)cc3)c2)ccc1=O` [Example 86, tert-butyl N-[(1S)-1-[[2-chloro-5-(1-isopropyl-6-oxo-3-pyridyl)phenyl]methyl]-2-[4-(4-methyl-1,2,4-triazol-3-yl)anilino]-2-oxo-ethyl]carbamate] was tested. Which EC50 did it give?
Its EC50 is over 1 µM.

`CC(C)n1cc(-c2ccc(Cl)c(C[C@H](NC(=O)OCc3ccccc3)C(=O)Nc3ccc(-c4nncn4C)cc3)c2)ccc1=O` [Example 87, benzyl N-[(1S)-1-[[2-chloro-5-(1-isopropyl-6-oxo-3-pyridyl)phenyl]methyl]-2-[4-(4-methyl-1,2,4-triazol-3-yl)anilino]-2-oxo-ethyl]carbamate] was tested. Which EC50 did it give?
Its EC50 is 0.1 to 1 µM.

How did the EC50 turn out when `Cc1ncnn1-c1ccc(NC(=O)C(Cc2cc(-c3ccc(=O)n(C(C)C)c3)ccc2Cl)NC(=O)c2ccnn2C)cc1` (stereo not shown) [Example 88, N-[1-[[2-chloro-5-(1-isopropyl-6-oxo-3-pyridyl)phenyl]methyl]-2-[4-(5-methyl-1,2,4-triazol-1-yl)anilino]-2-oxo-ethyl]-2-methyl-pyrazole-3-carboxamide] was run?
The EC50 was over 1 µM.

For `Cc1[nH]ncc1-c1ccc(NC(=O)C(Cc2cc(-c3ccc(=O)n(C(C)C)c3)ccc2Cl)NC(=O)c2ccnn2C)cc1` (stereo not shown) [Example 89, N-[1-[[2-chloro-5-(1-isopropyl-6-oxo-3-pyridyl)phenyl]methyl]-2-[4-(5-methyl-1H-pyrazol-4-yl)anilino]-2-oxo-ethyl]-2-methyl-pyrazole-3-carboxamide], which EC50 is on record?
The EC50 was 0.1 to 1 µM.

For `Cc1[nH]ncc1-c1ccc(NC(=O)C(Cc2cc(-c3ccc(=O)n(C(C)C)c3)ccc2Cl)NC(=O)OC(C)(C)C)cc1` (stereo not shown) [Example 90, tert-butyl N-[1-[[2-chloro-5-(1-isopropyl-6-oxo-3-pyridyl)phenyl]methyl]-2-[4-(5-methyl-1H-pyrazol-4-yl)anilino]-2-oxo-ethyl]carbamate], which EC50 is on record?
The EC50 was 0.1 to 1 µM.

Which EC50 does the source give for `CC(C)n1nccc1C(=O)N[C@@H](Cc1cc(-c2ccc(=O)n(C(C)C)c2)ccc1Cl)C(=O)Nc1ccc(-c2nncn2C)cc1` [Example 91, N-[(1S)-1-[[2-chloro-5-(1-isopropyl-6-oxo-3-pyridyl)phenyl]methyl]-2-[4-(4-methyl-1,2,4-triazol-3-yl)anilino]-2-oxo-ethyl]-2-isopropyl-pyrazole-3-carboxamide] here?
Its EC50 is 0.1 to 1 µM.

How did the EC50 turn out when `CC(C)n1cc(-c2ccc(Cl)c(C[C@H](NC(=O)C3(F)CC3)C(=O)Nc3ccc(-c4nncn4C)cc3)c2)ccc1=O` [Example 92, N-[(1S)-1-[[2-chloro-5-(1-isopropyl-6-oxo-3-pyridyl)phenyl]methyl]-2-[4-(4-methyl-1,2,4-triazol-3-yl)anilino]-2-oxo-ethyl]-1-fluoro-cyclopropanecarboxamide] was run?
The EC50 was over 1 µM.

`Cc1noc(C)c1-c1ccc(NC(=O)C(Cc2cc(-c3ccc(=O)n(C(C)C)c3)ccc2Cl)NC(=O)c2ccnn2C)cc1` (stereo not shown) [Example 93, N-[1-[[2-chloro-5-(1-isopropyl-6-oxo-3-pyridyl)phenyl]methyl]-2-[4-(3,5-dimethylisoxazol-4-yl)anilino]-2-oxo-ethyl]-2-methyl-pyrazole-3-carboxamide] was tested. Which EC50 did it give?
The EC50 was 0.1 to 1 µM.

For `Cc1n[nH]c(C)c1-c1ccc(NC(=O)C(Cc2cc(-c3ccc(=O)n(C(C)C)c3)ccc2Cl)NC(=O)c2ccnn2C)cc1` (stereo not shown) [Example 94, N-[1-[[2-chloro-5-(1-isopropyl-6-oxo-3-pyridyl)phenyl]methyl]-2-[4-(3,5-dimethyl-1H-pyrazol-4-yl)anilino]-2-oxo-ethyl]-2-methyl-pyrazole-3-carboxamide], which EC50 is on record?
Its EC50 is under 0.1 µM.
